Experimental data taken from patent publication US7687623B2, “Pyrrolobenzodiazepines and heterocyclic carboxamide derivatives as follicle stimulating hormone receptor (FSH-R) antagonists” (Wyeth LLC, priority 2005, dated 2010).

How the values were obtained:
human FSH receptor = target: T1, human FSH receptor (Homo sapiens, UniProt P23945); test: FSH receptor-dependent CRE-luciferase reporter gene assay (CHO FSH-R 6CRE-Luc, 1D7 cells); assay type: cell-based; conditions: for IC50: dose-response format in presence of EC50 of purified human FSH
T1 construct: host or cells: CHO-K1 (CHO FSH-R 6CRE-Luc, 1D7 cells)
T1 sequence (P23945 18-695): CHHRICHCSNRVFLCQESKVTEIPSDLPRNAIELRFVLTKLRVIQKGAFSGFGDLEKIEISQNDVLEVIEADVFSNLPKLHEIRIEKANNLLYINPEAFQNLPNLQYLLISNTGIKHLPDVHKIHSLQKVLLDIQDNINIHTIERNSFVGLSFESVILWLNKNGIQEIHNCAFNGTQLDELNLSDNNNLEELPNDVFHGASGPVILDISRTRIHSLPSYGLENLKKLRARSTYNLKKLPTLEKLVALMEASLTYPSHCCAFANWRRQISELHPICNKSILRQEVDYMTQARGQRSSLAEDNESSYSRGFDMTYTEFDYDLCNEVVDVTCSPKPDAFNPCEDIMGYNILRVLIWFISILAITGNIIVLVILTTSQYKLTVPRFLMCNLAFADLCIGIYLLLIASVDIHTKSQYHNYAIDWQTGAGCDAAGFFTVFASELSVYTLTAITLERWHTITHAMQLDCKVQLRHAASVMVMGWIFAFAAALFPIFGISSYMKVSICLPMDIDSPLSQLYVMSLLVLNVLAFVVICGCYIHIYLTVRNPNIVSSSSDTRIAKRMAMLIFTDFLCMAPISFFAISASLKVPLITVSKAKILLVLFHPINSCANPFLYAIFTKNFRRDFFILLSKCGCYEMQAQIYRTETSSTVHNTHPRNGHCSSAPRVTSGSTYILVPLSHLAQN
Method: This procedure was used to identify and determine the relative potencies of human FSH receptor antagonists using a Chinese hamster ovarian cell line that stably produces the human FSH receptor and a luciferase reporter gene regulated by cAMP response elements.
The compounds were subsequently diluted in DMSO to working dilutions of 1 and 20 or 30 mM for 2-dose testing format and 1 μM-10 mM for dose-response format. The DMSO dilutions were diluted 500-fold in sterile growth medium [D-MEM/F-12 (GIBCO/BRL; Grand Island N.Y.) containing 15 mM HEPES, 2 mM 1-glutamine, pyridoxine hydrochloride, phenol red and 5% FetalClone II (HyClone Laboratories, Inc; Logan, Utah), 0.2% DMSO, 100 units penicillin G/ml, and 100 μg streptomycin sulfate/ml (GIBCO/BRL)]. The concentration of the vehicle in each of the compound dilutions was the same. POSITIVE CONTROLS: Purified human FSH (>98%) was purchased from Cortex Biochem, Inc. (San Leandro, Calif.) and a known FSH-R thiazolidinone antagonist was obtained from the Wyeth Research compound repository. Preparation of Cells
The CHO FSH-R 6CRE-Luc cells (1D7 cells) were obtained from Affymax (Palo Alto, Calif.). These Chinese hamster ovary cells (CHO-K1) were genetically engineered to stably express the recombinant human FSH receptor gene and a luciferase reporter gene under the regulation of 6 copies of a cAMP response element. The cells were plated one day prior to treatment into 96-well white opaque plates at a density of 50,000 cells/100 μl/well in growth medium. On the day of treatment, the growth medium was removed from the wells by aspiration and 50 µl of fresh growth medium was added to each well. The cells were incubated at 37° C. in a humidified incubator with 5% CO2/95% air.
The treated cells were incubated for 4 hours at 37° C. in a humidified incubator with 5% CO2/95% air. At the end of the incubation period, luciferase activity was measured by chemiluminescence using a commercially available kit (LucScreen, Tropix, Inc., Bedford, Mass.) according to the manufacturer's specifications, except that Buffer 1 and Buffer 2 were mixed together in equal proportion prior to the addition of 100 μl of the combined reagents to each well. Chemiluminescence was detected using a luminometer (EG & G Berthold Microlumat LB 96 P, Wallac, Gaithersburg, Md.) with chemiluminescence measured for 1 sec/well.
Background luminescence was measured for each well prior to the addition of the LucScreen reagent.
In the 96-well 2-dose format, each compound was tested in duplicate at each dose. […] One plate was used to test a maximum of 22 compounds.
The EC50 of purified human FSH alone was tested in triplicate with each test compound. The doses chosen to test each compound were extrapolated from the initial 2-dose screening process. Along with the test compounds, purified human FSH was also tested in a dose response (0.03, 0.1, 0.3, 1, 3, 10, and 30 ng/ml) for a positive control and quality control. One plate was used for 3 test compounds and the FSH positive control.
Luciferase activity is expressed as relative light units/sec/well. Luciferase activity in antagonist was compared to the appropriate negative and positive controls. For 2-dose testing, results are reported as luciferase activity and are expressed as % inhibition of the response obtained from the EC50 of FSH. For dose-response testing, results are reported as IC50 values. Data were analyzed statistically by one-way analysis of variance with appropriate weighting and transformation and relevant paired test as determined by Biometrics (Wyeth Research, Princeton, N.J.). IC50 values were calculated using the Stat/Excel program developed by Biometrics with appropriate weighting and transformation.

hFSH-R = target: T2, hFSH-R (Homo sapiens, UniProt P23945); test: cAMP accumulation (RIA) in CHO-3D2 cells (hFSH-R), hFSH-induced; assay type: cell-based; conditions: for Emax: read-out: cAMP % Efficacy
T2 construct: expressed in transfected cells; host or cells: CHO-3D2 cells
T2 sequence (P23945 18-695): T1 sequence (P23945 18-695)
Method: COMPOUND VEHICLE: Stock compounds were solubilized in 100% DMSO (Sigma Chemical Co.) at a concentration of 30 mM. The compounds were subsequently diluted in sterile assay medium consisting of Opti-MEM® I (Life Technologies) with 0.1% (w/v) BSA (Sigma), prior to use in the bio-assay. The final concentration of DMSO in the assay is 0.1%.
Plated cells are then incubated at 37° C. in a humidified 5% CO2/95% air, atmosphere.
On the day of the assay, cells were washed three times with 100 μl/well of assay medium consisting of Opti-MEM® I (Life Technologies) with 0.1% (w/v) BSA (Sigma). Medium was removed and 100 μl of assay medium was added to each well. Plates were incubated for an additional 30 minutes at 37° C. […] Reactions were terminated by the addition of 50 μl of 0.2N hydrochloric acid to each well and cAMP-accumulation was measured by radioimmunoassay (RIA) using a commercially available kit (Amersham).
All test compounds were evaluated in a dose-response paradigm ranging from about 0.01 to about 30 μM. Controls and test compounds were evaluated in quadruplicate in a 96-well format.
Along with the test compounds, FSH was also run as a positive control in the agonist mode using concentrations ranging from about 0.1-1000 ng/ml.
Data were analyzed by one-way analysis of variance and significant differences between treatments and control determined by Least Significant Difference test.
Test compounds were compared to the effect of purified human FSH.

Row | Compound | IC50 (human FSH receptor) | melting point | IC50 (hFSH-R) | Emax (hFSH-R) | inhibition at 30 µM (human FSH receptor; 2-dose format, test concentration 30 μM in parentheses, % inhibition of the response to EC50 of FSH)
1 | COc1ccccc1-c1ccc(C(=O)N2Cc3ccc(C(=O)NCc4cccn4C)n3Cc3ccccc32)cc1 [Example 2, 10-[(2′-Methoxy-1,1′-biphenyl-4-yl)carbonyl]-N-[(1-methyl-1H-pyrrol-2-yl)methyl]-10,11-dihydro-5H-pyrrolo[2,1-c][1,4]benzodiazepine-3-carboxamide] | 42.6 µM | 148 to 150 °C | 1.2 µM | 79% | 
2 | COc1ccc(-c2nc(CNC(=O)c3ccc4n3Cc3ccccc3N(C(=O)c3ccc(-c5ccccc5C)c(C)c3)C4)no2)cc1 [Example 10, 10-[(2,2′-Dimethyl-1,1′-biphenyl-4-yl)carbonyl]-N-{[5-(4-methoxyphenyl)-1,2,4-oxadiazol-3-yl]methyl}-10,11-dihydro-5H-pyrrolo[2,1-c][1,4]benzodiazepine-3-carboxamide] |  | 133 to 135 °C |  |  | 
3 | Cc1cc(C(=O)N2Cc3ccc(C(=O)NCc4cccn4C)n3Cc3ccccc32)ccc1-c1c(C)cccc1C [Example 8, N-[(1-Methyl-1H-pyrrol-2-yl)methyl]-10-[(2,2′,6′-trimethyl-1,1′-biphenyl-4-yl)carbonyl]-10,11-dihydro-5H-pyrrolo[2,1-c][1,4]benzodiazepine-3-carboxamide] | > 30 µM | 222 to 224 °C |  |  | 
4 | Cc1ccccc1-c1ccc(C(=O)N2Cc3ccc(C(=O)NCC4CCCNC4)n3Cc3ccccc32)cc1C (centres unmarked) [Example 12, 10-[(2,2′-Dimethyl-1,1′-biphenyl-4-yl)carbonyl]-N-(piperidin-3-ylmethyl)-10,11-dihydro-5H-pyrrolo[2,1-c][1,4]benzodiazepine-3-carboxamide] | > 30 µM |  |  |  | 
5 | COc1ccccc1-c1ccc(C(=O)N2Cc3ccc(C(=O)NCC4CN(Cc5ccccc5)CCO4)n3Cc3ccccc32)cc1 (centres unmarked) [Example 7, N-[(4-Benzylmorpholin-2-yl)methyl]-10-[(2′-methoxy-1,1′-biphenyl-4-yl)carbonyl]-10,11-dihydro-5H-pyrrolo[2,1-c][1,4]benzodiazepine-3-carboxamide] |  | 180 to 182 °C |  |  | 26%
6 | Cc1cc(CNC(=O)c2ccc3n2Cc2ccccc2N(C(=O)c2ccc(-c4c(C)cccc4C)c(C)c2)C3)no1 [Example 4, N-[(5-Methylisoxazol-3-yl)methyl]-10-[(2,2′,6′-trimethyl-1,1′-biphenyl-4-yl)carbonyl]-10,11-dihydro-5H-pyrrolo[2,1-c][1,4]benzodiazepine-3-carboxamide] | > 30 µM | 233 to 234 °C |  |  | 
7 | COc1ccccc1-c1ccc(C(=O)N2Cc3ccc(C(=O)NCc4cc(C)oc4C)n3Cc3ccccc32)cc1 [Example 6, N-[(2,5-Dimethyl-3-furyl)methyl]-10-[(2′-methoxy-1,1′-biphenyl-4-yl)carbonyl]-10,11-dihydro-5H-pyrrolo[2,1-c][1,4]benzodiazepine-3-carboxamide] | 3.3 µM |  | 0.3 µM | 81% | 
8 | COc1ccccc1-c1ccc(C(=O)N2Cc3ccc(C(=O)NCc4cc(C)on4)n3Cc3ccccc32)cc1 [Example 5, 10-[(2′-Methoxy-1,1′-biphenyl-4-yl)carbonyl]-N-[(5-methylisoxazol-3-yl)methyl]-10,11-dihydro-5H-pyrrolo[2,1-c][1,4]benzodiazepine-3-carboxamide] | 10.2 µM | 111 to 113 °C | 0.6 µM | 96% | 
9 | Cc1ccccc1-c1ccc(C(=O)N2Cc3ccc(C(=O)NCc4csc(-c5ccc(Cl)cc5)n4)n3Cc3ccccc32)cc1C [Example 11, N-{[2-(4-Chlorophenyl)-1,3-thiazol-4-yl]methyl}-10-[(2,2′-dimethyl-1,1′-biphenyl-4-yl)carbonyl]-10,11-dihydro-5H-pyrrolo[2,1-c][1,4]benzodiazepine-3-carboxamide] |  | 198 to 201 °C |  |  | 
